System: 997726-040-R-J2-PDC tumor spheroids, viability
Assay: Anticancer human tumor 997726-040-R-J2-PDC patient-derived squamous cell lung carcinoma cell line growth inhibition [PI3K]
Conditions: spheroids with HUVEC and MSC; for IC50: curve of first compound; for viability, T/C: stronger effect = lower value
How it was run: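 Viability of mixed-cell spheroids was determined after exposure to pairwise combinations, one partner being inavolisib, alpelisib, duvelisib or copanlisib. Highest tested concentration matched clinical Cmax where known and 10 microM where not, descending in half-log steps.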

[1] = second compound 0.0316 µM, first compound 0.0316 µM
[2] = second compound 0.0316 µM, first compound 0.1 µM
[3] = second compound 0.0316 µM, first compound 0.316 µM
[4] = second compound 0.0316 µM, first compound 1 µM
[5] = second compound 0.0316 µM, first compound 3.16 µM
[6] = second compound 0.0316 µM, first compound 10 µM
[7] = second compound 0.1 µM, first compound 0.0316 µM
[8] = second compound 0.1 µM, first compound 0.1 µM
[9] = second compound 0.1 µM, first compound 0.316 µM
[10] = second compound 0.1 µM, first compound 1 µM
[11] = second compound 0.1 µM, first compound 3.16 µM
[12] = second compound 0.1 µM, first compound 10 µM
[13] = second compound 0.316 µM, first compound 0.0316 µM
[14] = second compound 0.316 µM, first compound 0.1 µM
[15] = second compound 0.316 µM, first compound 0.316 µM
[16] = second compound 0.316 µM, first compound 1 µM
[17] = second compound 0.316 µM, first compound 3.16 µM
[18] = second compound 0.316 µM, first compound 10 µM
[19] = second compound 1 µM, first compound 0.0316 µM
[20] = second compound 1 µM, first compound 0.1 µM
[21] = second compound 1 µM, first compound 0.316 µM
[22] = second compound 1 µM, first compound 1 µM
[23] = second compound 1 µM, first compound 3.16 µM
[24] = second compound 1 µM, first compound 10 µM
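Note: spheroids exposed to compounds for seven days before readout.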

Work on Cn1nccc1Nc1nccc(-c2ccn(C(CO)c3ccc(Cl)c(F)c3)c(=O)c2)n1 (centres undefined) + Cc1nc(NC(=O)N2CCCC2C(N)=O)sc1-c1ccnc(C(C)(C)C(F)(F)F)c1 yielded an IC50 (second compound 0.0316 µM) of 6270 nM, an IC50 (second compound 0.1 µM) of 307 nM and an IC50 (second compound 0.316 µM) of 59.9 nM. The IC50 (second compound 1 µM) was less than 31.6 nM, the IC50 (second compound 3.16 µM) was less than 31.6 nM and the IC50 (second compound 10 µM) was less than 31.6 nM. The viability, T/C [1] was 72.8%, the viability, T/C [2] was 72.3% and the viability, T/C [3] was 63.3%. It also gave a viability, T/C [4] of 65.4%, a viability, T/C [5] of 55% and a viability, T/C [6] of 46.1%. The viability, T/C [7] was 64.7%, the viability, T/C [8] was 75.7% and the viability, T/C [9] was 48.3%. It also gave a viability, T/C [10] of 52%, a viability, T/C [11] of 49.3% and a viability, T/C [12] of 48.1%. The viability, T/C [13] was 55.4%, the viability, T/C [14] was 44.4% and the viability, T/C [15] was 43%. For the same compound, the viability, T/C [16] was 34.9%, the viability, T/C [17] was 38.7% and the viability, T/C [18] was 33%. The viability, T/C [19] was 41.9%, the viability, T/C [20] was 36.8% and the viability, T/C [21] was 32.7%. The viability, T/C [22] was 30.2%, the viability, T/C [23] was 28% and the viability, T/C [24] was 23.3%. For the same compound, the viability, T/C (second compound 3.16 µM, first compound 0.0316 µM) was 29.8%, the viability, T/C (second compound 3.16 µM, first compound 0.1 µM) was 27.7% and the viability, T/C (second compound 3.16 µM, first compound 0.316 µM) was 23.2%. For the same compound, the viability, T/C (second compound 3.16 µM, first compound 1 µM) was 28.3%, the viability, T/C (second compound 3.16 µM, first compound 3.16 µM) was 27% and the viability, T/C (second compound 3.16 µM, first compound 10 µM) was 16.1%. It also gave a viability, T/C (second compound 10 µM, first compound 0.0316 µM) of 17.1%, a viability, T/C (second compound 10 µM, first compound 0.1 µM) of 12.8% and a viability, T/C (second compound 10 µM, first compound 0.316 µM) of 15.8%. For the same compound, the viability, T/C (second compound 10 µM, first compound 1 µM) was 14.3%, the viability, T/C (second compound 10 µM, first compound 3.16 µM) was 17.2% and the viability, T/C (second compound 10 µM, first compound 10 µM) was 7.87%.
In the case of C[C@@H](NC(=O)c1ncnc(N)c1Cl)c1ncc(C(=O)Nc2cc(C(F)(F)F)c(Cl)cn2)s1 + COc1c(OCCCN2CCOCC2)ccc2c3n(c(=NC(=O)c4cnc(N)nc4)nc12)CCN3, the IC50 (second compound 0.00316 µM) is reported as greater than 10000 nM, the IC50 (second compound 0.01 µM) is reported as greater than 10000 nM and the IC50 (second compound 0.0316 µM) is reported as less than 31.6 nM. It also gave an IC50 (second compound 0.1 µM) of less than 31.6 nM, an IC50 (second compound 0.316 µM) of less than 31.6 nM and an IC50 (second compound 1 µM) of less than 31.6 nM. It also gave a viability, T/C (second compound 0.00316 µM, first compound 0.0316 µM) of 79.8%, a viability, T/C (second compound 0.00316 µM, first compound 0.1 µM) of 104% and a viability, T/C (second compound 0.00316 µM, first compound 0.316 µM) of 93.6%. The viability, T/C (second compound 0.00316 µM, first compound 1 µM) was 96.8%, the viability, T/C (second compound 0.00316 µM, first compound 3.16 µM) was 86% and the viability, T/C (second compound 0.00316 µM, first compound 10 µM) was 57.2%. For the same compound, the viability, T/C (second compound 0.01 µM, first compound 0.0316 µM) was 64.1%, the viability, T/C (second compound 0.01 µM, first compound 0.1 µM) was 71.6% and the viability, T/C (second compound 0.01 µM, first compound 0.316 µM) was 66.7%. For the same compound, the viability, T/C (second compound 0.01 µM, first compound 1 µM) was 68.9%, the viability, T/C (second compound 0.01 µM, first compound 3.16 µM) was 58.2% and the viability, T/C (second compound 0.01 µM, first compound 10 µM) was 54.8%. For the same compound, the viability, T/C [1] was 44%, the viability, T/C [2] was 42.9% and the viability, T/C [3] was 45.7%. For the same compound, the viability, T/C [4] was 47.9%, the viability, T/C [5] was 39.6% and the viability, T/C [6] was 34.1%. It also gave a viability, T/C [7] of 26.7%, a viability, T/C [8] of 25.6% and a viability, T/C [9] of 27.1%. The viability, T/C [10] was 29.2%, the viability, T/C [11] was 25.6% and the viability, T/C [12] was 19.2%. For the same compound, the viability, T/C [13] was 6.28%, the viability, T/C [14] was 6% and the viability, T/C [15] was 7.45%. It also gave a viability, T/C [16] of 7.98%, a viability, T/C [17] of 5.89% and a viability, T/C [18] of 3.91%. For the same compound, the viability, T/C [19] was 2.28%, the viability, T/C [20] was 1.55% and the viability, T/C [21] was 1.77%. It also gave a viability, T/C [22] of 1.89%, a viability, T/C [23] of 1.41% and a viability, T/C [24] of 0.66%.

— PubChem BioAssay AID1963964 (Molecular Pharmacology Branch, DTP, NCI, 2024)
